Reference: patent EP0098577A2, “Drugs for treating diarrhea caused by infection” (HOECHST AKTIENGESELLSCHAFT, priority 1982, dated 1984)
Read-outs that look alike come from different tables or passages of the source.

Assays:
Experiment in all cases: in vitro checkerboard method (Schachbrettmethode): MHK and FIC-Index
Assay type in all cases: cell-based
E. coli 0 55 = conditions: single substance; for MIC: Escherichia coli, 055, in vitro
From the text: (§1) Zur Untersuchung der erfindungsgemäßen Kombination wurden mit typischen Vertretern der grampositiven und gramnegativen Keimgruppen in vitro Versuche durchgeführt. Mit der für Kombinationsversuche üblichen Methode, der sogenannten "Schachbrettmethode" (vgl. "Antibiotics in Laboratory Medicine", Editor Lorian, Baltimore London 1980, Seiten 300-309), wurden sowohl die minimalen Hemmkonzentrationen (MHK) als auch die Hemmgrenzen in den einzelnen Kombinationen bestimmt. Das Endergebnis wurde als FIC-Index (Fractional Inhibitory Concentration Index) ausgedrückt. Der FIC-Index berechnet sich nach folgender Formel: [formula]
(§2) Hierbei ist A bzw. B die niedrigste Konzentration der Verbindungen A bzw. B, die in Kombination mit der Verbindung B bzw. A eine Hemmwirkung zeigt. Dieser Wert wird durch die MHK der Verbindung A bzw. B dividiert. Der so erhaltene FIC-Index gibt Aufschluß über die Interaktionen von zwei Verbindungen in ihrer antibakteriellen Wirkung. FIC-Index-Zahlen, die kleiner als 1 sind, drücken eine synergistische Wirkung aus. Die mit dieser Methode ermittelten Resultate sind in den nachstehenden Tabellen zusammengestellt.
(§3) In den nachstehenden Tabellen sind in den ersten beiden Spalten die minimalen Hemmkonzentrationen der geprüften Verbindungen in Mikrogramm pro Milliliter aufgeführt. In einigen Fällen sind abweichende Konzentrationseinheiten angegeben, z.B. Nanogramm [ng] oder Milligramm [mg] pro Milliliter. Wenn ein FIC-Index nicht angegeben wurde, so bedeutet dies, daß aufgrund der Unwirksamkeit des einen Wirkstoffes keine Grenze zu ermitteln war.

[1] = system: Micrococcus luteus ATCC 9341
From the text: as §1, §2, §3

E. coli TEM = conditions: Escherichia coli, read-out: MHK
From the text: as §1, §2, §3

Salmonella typhimurium = conditions: for MIC: Salmonella enterica, TYPHIMURIUM, read-out: MHK
From the text: as §1, §2, §3

E. coli 0 86 = conditions: Escherichia coli, 086, single substance, ng per millilitre (b7)
From the text: as §1, §2, §3

Strept. pyogenes A 77 = conditions: Streptococcus pyogenes, A77, single substance
From the text: as §1, §2, §3

Strept. faecium D = conditions: Enterococcus faecium, single substance
From the text: as §1, §2, §3

Hafnia alvei ATCC 11604 = system: Hafnia alvei ATCC 11604
From the text: as §1, §2, §3

Proteus rettgeri 936 = conditions: single substance; for MIC: Providencia rettgeri, 936, in vitro
From the text: as §1, §2, §3

[2] = system: Serratia marcescens A 20019; conditions: single substance; for MIC: Serratia marcescens, A20019, in vitro
From the text: as §1, §2, §3

Salmonella oranienburg = conditions: Salmonella enterica, single substance
From the text: as §1, §2, §3

Salmonella paratyphi A = conditions: Salmonella enterica, read-out: MHK
From the text: as §1, §2, §3

Pseud. aeruginosa 1771 m = conditions: single substance; for MIC: Pseudomonas aeruginosa, 1771M
From the text: as §1, §2, §3

Staph. aureus SG 511 = conditions: Staphylococcus aureus, SG511, single substance
From the text: as §1, §2, §3

[3] = system: Pseud. aeruginosa ATCC 9027; conditions: Pseudomonas aeruginosa, ATCC9027, in vitro, single substance
From the text: as §1, §2, §3

[4] = system: Pseud. aeruginosa NCTC 10701; conditions: Pseudomonas aeruginosa, NCTC10701, in vitro, single substance
From the text: as §1, §2, §3

Enterobacter cloacae = conditions: read-out: MHK
From the text: as §1, §2, §3

[5] = system: Klebsiella pneumoniae A 9977
From the text: as §1, §2, §3

[6] = system: Serratia marcescens A 20460; conditions: for MIC: Serratia marcescens
From the text: as §1, §2, §3

[7] = system: Bacillus subtilis ATCC 6633
From the text: as §1, §2, §3

[8] = ATCC9341, in vitro, single substance, Micrococcus luteus ATCC 9341, read-out: MHK
[9] = in vitro, single substance, Salmonella typhimurium

| SMILES | MIC [1, 8] [µg/mL] | MIC (E. coli TEM) [µg/mL] | MIC (E. coli 0 86) [µg/mL] | MIC (Strept. pyogenes A 77) [µg/mL] | MIC (Strept. faecium D) [µg/mL] | MIC (Proteus rettgeri 936; ng per millilitre (b7)) [µg/mL] | MIC (Salmonella oranienburg; ng per millilitre (b7)) [µg/mL] | MIC (Salmonella paratyphi A) [µg/mL] | MIC (Pseud. aeruginosa 1771 m) [µg/mL] | MIC (Staph. aureus SG 511) [µg/mL] | MIC (Strept. pyogenes A 77; mg per millilitre (b7)) [µg/mL] | MIC [3] [µg/mL] | MIC [4] [µg/mL] | other results |
| --- | --- | --- | --- | --- | --- | --- | --- | --- | --- | --- | --- | --- | --- | --- |
| CCn1cc(C(=O)O)c(=O)c2cc(F)c(N3CCNCC3)cc21 [Norfloxacin] | 12.5 | 0.0391 | 0.0391 | 2.5 | 1.25 | 0.0781 | 0.0781 | 0.0195 |  |  |  |  |  | MIC (E. coli 0 55; ng per millilitre (b7)): 0.0391 µg/mL; MIC (Salmonella typhimurium): 0.0195 µg/mL; MIC (Hafnia alvei ATCC 11604; Hafnia alvei, ATCC11604, read-out: MHK): 0.0195 µg/mL; MIC ([2]; ng per millilitre (b7)): 0.0781 µg/mL |
| COn1cc(C(=O)O)c(=O)c2cc3c(cc21)OCO3 [Miloxacin] |  |  |  |  |  |  |  |  | 50 | 6.25 | > 1000 | 25 | 31.2 | MIC ([1]; ATCC9341, in vitro, single substance, Micrococcus luteus ATCC 9341, mg per millilitre (b7), read-out: MHK): > 1000 µg/mL; MIC (Strept. faecium D; mg per millilitre (b7)): > 1000 µg/mL; MIC (Enterobacter cloacae; in vitro, single substance): 2.5 µg/mL |
| CCn1cc(C(=O)O)c(=O)c2ccc(C)nc21 [Nalidixinsäure] |  |  |  |  | 500 |  |  |  | 100 | 50 | > 1000 | 500 | 250 | MIC ([1]; Micrococcus luteus, ATCC9341, read-out: MHK): > 1000 µg/mL; MIC ([5]; Klebsiella pneumoniae, A9977, read-out: MHK): 6.25 µg/mL; MIC ([6]; A20460, read-out: MHK): 6.25 µg/mL; MIC ([7]; Bacillus subtilis, ATCC6633, read-out: MHK): 6.25 µg/mL; MIC (Enterobacter cloacae): 6.25 µg/mL |
| CCn1cc(C(=O)O)c(=O)c2cc3occc3nc21 [OFNC, 5-Äthyl-5,8-dihydro-8-oxofuran(3,2-b)(1,8)-naphthyridin-7-carbonsäure] | 31.2 |  | 0.0625 | 125 | 31.2 | 0.0312 | 0.0781 | 0.0391 |  |  |  |  |  | MIC ([5]; A9977, in vitro, single substance, Klebsiella pneumoniae A 9977, ng per millilitre (b7), read-out: MHK): 0.0781 µg/mL; MIC (Salmonella typhimurium; in vitro, single substance, Salmonella typhimurium, ng per millilitre (b7)): 0.0781 µg/mL; MIC ([7]; ATCC6633, in vitro, single substance, Bacillus subtilis ATCC 6633, ng per millilitre (b7), read-out: MHK): 0.0488 µg/mL; MIC (Hafnia alvei ATCC 11604; ATCC11604, in vitro, single substance, Hafnia alvei ATCC 11604, ng per millilitre (b7), read-out: MHK): 0.0391 µg/mL |
| CCOc1ccc2nc3cc(N)ccc3c(N)c2c1 [EAL, Ethacridinlactat] | 6.25 | 12.5 |  |  | 12.5 |  |  | 12.5 | 31.2 | 6.25 |  | 12.5 | 12.5 | MIC (E. coli 0 55): 6.25 µg/mL; MHK (E. coli 0 55; in vitro): 12,5 µg/ml; MHK (Pseud. aeruginosa 1771 m): 62,5 µg/ml; MIC ([5]; A9977, in vitro, single substance, Klebsiella pneumoniae A 9977, read-out: MHK): 125 µg/mL; MIC (Salmonella typhimurium; [9]): 25 µg/mL; MHK (Salmonella typhimurium; [9]): 50,0 µg/ml; MIC ([6]; A20460, in vitro, single substance, Serratia marcescens A 20460, mg per millilitre (b7), read-out: MHK): > 1000 µg/mL; MHK ([6]; in vitro, single substance, Serratia marcescens A 20460, mg per millilitre (b7)): 1,0 mg; MIC (Hafnia alvei ATCC 11604; ATCC11604, in vitro, single substance, Hafnia alvei ATCC 11604, read-out: MHK): 62.5 µg/mL; MIC (Proteus rettgeri 936): 31.2 µg/mL; MHK (Proteus rettgeri 936; in vitro): 62,5 µg/ml; MIC ([2]; mg per millilitre (b7)): 1000 µg/mL; MHK ([2]; in vitro, mg per millilitre (b7)): >1,0 mg; MIC (Salmonella oranienburg): 62.5 µg/mL |
